A short description of series [1]: Solution and suspension levels of terpenes in water. The source says: The terpene and water were blended in a household blender for 30 seconds.
Examples of these levels are as follows.

In another series the test system is E. coli. The conditions noted are these: cited from earlier work.
The nature of series [2]: Potency decay / breakdown of terpenes in presence of oxygen. It is filed as physicochemical. The following applies: 500 ppm solution. The source says:
Terpenes will break down in the presence of oxygen. Citral, for example, is an aldehyde and will decay (oxygenate) over a period of days.

The next series has as its system H. pylori. The following applies: cited from earlier work.
For the next series, the system named is Mycoplasma pneumoniae. As to the kind of experiment: Effectiveness against Mycoplasma pneumoniae (color change of SP4 medium). The conditions noted are these: 40 hours treatment. It is filed as cell-based. The protocol: Terpene beta-ionone or L-carvone was first mixed well with Tween® 80 to have a final Tween® 80 concentration of 5 vol %. This mixture was then used to make concentrations of 2500 ppm in sterile phosphate buffer saline (PBS) by blending the mixture in PBS for 40 seconds. This 2500 ppm solution was then diluted to 500 ppm, 250 ppm, and 125 ppm with PBS.
PBS containing 25 ppm Tween® 80 or PBS alone was used to treat cells suspension as controls.
A log phase (2-3 -day old) culture of Mycoplasma pneumoniae was mixed with each of the above three concentrations of terpene at 1:1 (volume) ratio (in this case, I mL of cell suspension was added to 1 mL of terpene).
The culture and terpene mixture was then incubated at 37° C. for 40 hours. After 40 hours of treatment, 10-fold serial dilution was performed to 10 (−10) by first taking 0.1 mL of the treated culture suspension was added into 0.9 mL of fresh SP4 (Whitcomb (1983); SP4 media is commercially available (Remel, Lenexa, Kans., USA)). All the tubes were then incubated at 37° C., and a color change of the medium was used for the indication of the cells that either were killed or survived from the treatment. Color change was from red to yellow because Mycoplasma pneumoniae produces acid during its growth.
All the treatments were performed in duplicate.

The test system of series [3] is Third stage (L3) Dirofilaria immitis larvae. As to the kind of experiment: In-vitro larvacidal effect. It is filed as cell-based. Here is the method: Third stage (L3) Dirofilaria immitis larvae were suspended at a concentration of 85 larvae/ml. Larvae were deposited on plates with wells containing b-ionone at a concentration of 5 μM, 50 μM, and 750 μM, Tween® 80, and control media.
Plates were incubated at 37° C., 95% relative humidity (RH), and 5% CO2 for 6 days.
After incubation all wells were evaluated for appearance, motility, and molting to stage four (L4) at 24, 48, 72 hours, and 6 days.

[4] abbreviates: in water without surfactant, high-shear blending.

Entries after “also recorded” stand apart in the source; their conditions may differ. Read-outs that look alike come from different tables or passages of the source.

Here are results for six compounds from patent US20030231978A1, “Indoor air quality and antiseptic composition for use therein” (priority 2002, published 2003).

On to `C=C(C)C1CC=C(C)C(=O)C1` (stereo not shown) [Carvone], for which, in series [1] (setting [4]), the “Solution levels for various terpenes (maximum level solubilized)” value (from here on “Solution levels for various terpenes”) was 500 ppm.
Take `CC(C)=CCCC(C)=CC=O` [Citral, 3,7-dimethyl-2,6-octadien-1-al]: the “Level up to which a stable suspension of citral can be formed” value in series [1] is recorded as “up to 2500 ppm”. Besides, in series [1] (true solution, high shear mixing, no surfactant), the “Level up to which citral forms a solution in water” value is reported as “up to 1000 ppm”. Also, the “Concentration that will lyse human erythrocytes” value with human erythrocytes is reported as “about 1000 ppm”. In addition, in the series with E. coli, the “Citral in growth media that reduced the concentration of E. coli” value was “more than 0.01%” and the “Citral in growth media with bactericidal effect” value is reported as 0.08%. Also, the “Time to lose half its potency” value in series [2] is on record as 2-3 weeks.
Consider `CC(C)=CCC/C(C)=C/CO` [Geraniol], for which the “Solution levels for various terpenes” value in series [1] came out at 500 ppm. Further, the “Concentration that inhibited the growth of H. pylori in vitro” value in the series with H. pylori was 2 mg/L.
As to `CC(=O)/C=C/C1=C(C)CCCC1(C)C` [b-ionone], the “Solution levels for various terpenes” value in series [1] (setting [4]) turned out to be 500 ppm. In the series with Mycoplasma pneumoniae (62.5 ppm, 125 ppm and 250 ppm), the “Color change of the first tube three days after the 10-fold dilution (killing effect)” value is “did not change color at all indicating a killing effect”. In the series with Mycoplasma pneumoniae (62.5 ppm), the “Color change of tubes 6 days after the 10-fold dilution” value is reported as “only the first tube of 62.5 ppm beta-ionone changed color”. Moreover, the “Killing of cells, 6 days after the 10-fold dilution” value with Mycoplasma pneumoniae (125 and 250 ppm) was “may have completely killed all cells in 40 hours”. For the same compound, the “Survival, motility and molting of larvae” value was “no effect on the larvae” in series [3] (5 μM); “decreased survivability, motility, and molting; also recorded: Most larvae were dead by 6 days and none molted” in series [3] (50 μM, 6 day assay); “all larvae were dead or moribund within 24 hours” in series [3] (750 μM).
For the compound L-carvone, in the series with Mycoplasma pneumoniae (62.5 ppm, 125 ppm and 250 ppm), the “Color change of the first tube three days after the 10-fold dilution (killing effect)” value is on record as “no killing effects”; the “Color change of the second and third tube 6 days after the 10-fold dilution” value is “changed color”.
As for Terpeniol, the “Solution levels for various terpenes” value in series [1] (setting [4]) worked out at 500 ppm.
